Legend:
crabgrass = test: Test B pre/postemergence crabgrass; assay type: in vivo, Digitaria sanguinalis
Method in brief: (§1)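 Response is a visual 0-to-10 score relative to untreated plants, where 0 means no effect and 10 means complete control, taken twelve to sixteen days after application. Treatments went onto soil at planting and onto foliage of 1- to 4-leaf plants, using a surfactant-containing non-phytotoxic solvent.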

bedstraw = test: Test B pre/postemergence bedstraw; assay type: in vivo, Galium aparine
Method in brief: as §1

soybean = test: Test B pre/postemergence soybean; assay type: in vivo, Glycine max
Method in brief: as §1

wild oat = test: Test B pre/postemergence wild oat; assay type: in vivo, Avena fatua
Method in brief: as §1

wheat = test: Test B pre/postemergence wheat; assay type: in vivo, Triticum aestivum
Method in brief: as §1

blackgrass = test: Test B pre/postemergence blackgrass; assay type: in vivo, Alopecurus myosuroides
Method in brief: as §1

purple nutsedge = test: Test B pre/postemergence purple nutsedge; assay type: in vivo, Cyperus rotundus
Method in brief: as §1

surinam grass = test: Test B pre/postemergence surinam grass; assay type: in vivo, Brachiaria decumbens
Method in brief: as §1

cocklebur = test: Test B pre/postemergence cocklebur; assay type: in vivo, Xanthium strumarium
Method in brief: as §1

pigweed = test: Test B pre/postemergence pigweed; assay type: in vivo, Amaranthus retroflexus
Method in brief: as §1

morningglory = test: Test B pre/postemergence morningglory; assay type: in vivo, Ipomoea hederacea
Method in brief: as §1

corn = test: Test B pre/postemergence corn; assay type: in vivo, Zea mays
Method in brief: as §1

giant foxtail = test: Test B pre/postemergence giant foxtail; assay type: in vivo, Setaria faberii
Method in brief: as §1

sugar beet = test: Test B pre/postemergence sugar beet; assay type: in vivo, Beta vulgaris
Method in brief: as §1

rape = test: Test B pre/postemergence rape; assay type: in vivo, Brassica napus
Method in brief: as §1

velvetleaf = test: Test B pre/postemergence velvetleaf; assay type: in vivo, Abutilon theophrasti
Method in brief: as §1

[1] = Postemergence, Rate 62 g/ha, scale of 0 to 10, 0 is no effect, 10 is complete control
[2] = Postemergence, Rate 125 g/ha, scale 0 to 10, 0 is no effect, 10 is complete control
[3] = Postemergence, Rate 250 g/ha, scale 0 to 10
[4] = Postemergence, Rate 500 g/ha, scale 0 to 10, 0 is no effect, 10 is complete control
[5] = Preemergence, Rate 62 g/ha, scale of 0 to 10 where 0 is no effect and 10 is complete control
[6] = Preemergence, Rate 125 g/ha, scale 0 to 10, 0 is no effect, 10 is complete control
[7] = Preemergence, Rate 500 g/ha, scale of 0 to 10 where 0 is no effect and 10 is complete control
[8] = Preemergence, Rate 250 g/ha, scale 0 to 10, 0 is no effect, 10 is complete control
[9] = Preemergence, Rate 500 g/ha, scale 0 to 10, 0 is no effect, 10 is complete control
[10] = Preemergence, Rate 31 g/ha, visual rating, scale 0 to 10 (0 no effect, 10 complete control)
[11] = Preemergence, Rate 125 g/ha, scale of 0 to 10 where 0 is no effect and 10 is complete control
[12] = Preemergence, Rate 250 g/ha, scale 0 (no effect) to 10 (complete control)
[13] = Preemergence, Rate 250 g/ha, scale 0 to 10 (0 no effect, 10 complete control)

CC(C)N(C(=O)n1oc(=O)n(C(C)C(=O)c2ccccc2)c1=O)c1ccc(F)cc1F (centres unmarked) [Compound 511]
8: Bedstraw plant response rating (bedstraw; [2]) | Redroot pigweed plant response rating (pigweed; [7])
7: Crabgrass plant response rating (crabgrass; [3]) | Plant response rating, Redroot pigweed (pigweed; [4])
9: Plant response rating, Crabgrass (crabgrass; [4]) | Plant response rating, Giant foxtail (giant foxtail; [4])
10: Crabgrass plant response rating (crabgrass; [7]) | Giant foxtail plant response rating (giant foxtail; [7])
0: Plant response rating, Bedstraw (bedstraw; [5]) | Bedstraw plant response rating (bedstraw; [6]) | Bedstraw plant response rating (bedstraw; [8]) | Bedstraw plant response rating (bedstraw; [9]) | Plant response rating, Soybean (soybean; [5]) | Soybean plant response rating (soybean; [6]) | Soybean plant response rating (soybean; [7]) | Wild oats plant response rating (wild oat; [1]) | Wild oats plant response rating (wild oat; [2]) | Plant response rating, Wild oats (wild oat; [4]) | Plant response rating, Wild oats (wild oat; [5]) | Wild oats plant response rating (wild oat; [6]) | Wheat plant response rating (wheat; [1]) | Wheat plant response rating (wheat; [2]) | Plant response rating, Wheat (wheat; [4]) | Plant response rating, Wheat (wheat; [5]) | Wheat plant response rating (wheat; [6]) | Wheat plant response rating (wheat; [7]) | Blackgrass plant response rating (blackgrass; [1]) | Blackgrass plant response rating (blackgrass; [2]) | Blackgrass plant response rating (blackgrass; [3]) | Plant response rating, Blackgrass (blackgrass; [5]) | Blackgrass plant response rating (blackgrass; [6]) | Blackgrass plant response rating (blackgrass; [8]) | Blackgrass plant response rating (blackgrass; [7]) | Nutsedge plant response rating (purple nutsedge; [1]) | Nutsedge plant response rating (purple nutsedge; [2]) | Plant response rating, Nutsedge (purple nutsedge; [4]) | Plant response rating, Nutsedge (purple nutsedge; [5]) | Nutsedge plant response rating (purple nutsedge; [6]) | Nutsedge plant response rating (purple nutsedge; [7]) | B. signalgrass plant response rating (surinam grass; [1]) | B. signalgrass plant response rating (surinam grass; [2]) | B. signalgrass plant response rating (surinam grass; Postemergence, Rate 250 g/ha, scale 0 to 10, 0 no effect, 10 complete control) | Plant response rating, B. signalgrass (surinam grass; [5]) | B. signalgrass plant response rating (surinam grass; [6]) | B. signalgrass plant response rating (surinam grass; [8]) | B. signalgrass plant response rating (surinam grass; [9]) | Cocklebur plant response rating (cocklebur; [1]) | Cocklebur plant response rating (cocklebur; [2]) | Cocklebur plant response rating (cocklebur; [3]) | Plant response rating, Cocklebur (cocklebur; [4]) | Plant response rating, Cocklebur (cocklebur; [5]) | Cocklebur plant response rating (cocklebur; [6]) | Cocklebur plant response rating (cocklebur; [8]) | Cocklebur plant response rating (cocklebur; [7]) | Plant response rating, Morningglory (morningglory; [5]) | Morningglory plant response rating (morningglory; [6]) | Morningglory plant response rating (morningglory; [7]) | Corn plant response rating (corn; [1]) | Corn plant response rating (corn; [2]) | Corn plant response rating (corn; [3]) | Plant response rating, Corn (corn; [4]) | Plant response rating, Corn (corn; [5]) | Corn plant response rating (corn; [6]) | Corn plant response rating (corn; [7]) | Sugarbeets plant response rating (sugar beet; [1]) | Sugarbeets plant response rating (sugar beet; [2]) | Plant response rating, Sugarbeets (sugar beet; [5]) | Sugarbeets plant response rating (sugar beet; [6]) | Sugarbeets plant response rating (sugar beet; [7]) | Rape plant response rating (rape; [1]) | Plant response rating, Rape (rape; [5]) | Rape plant response rating (rape; [6]) | Rape plant response rating (rape; [7]) | Velvetleaf plant response rating (velvetleaf; [1]) | Plant response rating, Velvetleaf (velvetleaf; [5]) | Velvetleaf plant response rating (velvetleaf; [6]) | Velvetleaf plant response rating (velvetleaf; [7])
6: Crabgrass plant response rating (crabgrass; [6]) | Redroot pigweed plant response rating (pigweed; [2]) | Redroot pigweed plant response rating (pigweed; [6])
2: Wild oats plant response rating (wild oat; [7]) | Plant response rating, Blackgrass (blackgrass; [4]) | Plant response rating, Sugarbeets (sugar beet; [4]) | Plant response rating, Velvetleaf (velvetleaf; [4])
4: Soybean plant response rating (soybean; [2]) | Plant response rating, Soybean (soybean; [4]) | Plant response rating, Redroot pigweed (pigweed; [5]) | Morningglory plant response rating (morningglory; [1]) | Morningglory plant response rating (morningglory; [2]) | Plant response rating, Rape (rape; [4])
5: Plant response rating, Crabgrass (crabgrass; [5]) | Redroot pigweed plant response rating (pigweed; [1]) | Plant response rating, Morningglory (morningglory; [4]) | Plant response rating, Giant foxtail (giant foxtail; [5])
3: Crabgrass plant response rating (crabgrass; [1]) | Crabgrass plant response rating (crabgrass; [2]) | Plant response rating, B. signalgrass (surinam grass; [4]) | Giant foxtail plant response rating (giant foxtail; [1]) | Giant foxtail plant response rating (giant foxtail; [2])
1: Soybean plant response rating (soybean; [1]) | Rape plant response rating (rape; [2]) | Velvetleaf plant response rating (velvetleaf; [2])

CC(=O)NCCn1c(=O)on(C(=O)N(c2ccc(F)cc2)C(C)C)c1=O [Compound 727]
3: Crabgrass plant response rating (crabgrass; [10]) | Crabgrass plant response rating (crabgrass; [5]) | Plant response rating, Wild oats (wild oat; [11]) | Wild oats plant response rating (wild oat; [12])
0: Bedstraw plant response rating (bedstraw; [10]) | Bedstraw plant response rating (bedstraw; [5]) | Plant response rating, Bedstraw (bedstraw; [11]) | Bedstraw plant response rating (bedstraw; [12]) | Soybean plant response rating (soybean; [5]) | Plant response rating, Soybean (soybean; [11]) | Soybean plant response rating (soybean; [12]) | Wild oats plant response rating (wild oat; [5]) | Wheat plant response rating (wheat; [5]) | Plant response rating, Wheat (wheat; [11]) | Wheat plant response rating (wheat; [12]) | Blackgrass plant response rating (blackgrass; [10]) | Blackgrass plant response rating (blackgrass; [5]) | Plant response rating, Nutsedge (purple nutsedge; [11]) | Nutsedge plant response rating (purple nutsedge; [12]) | B. signalgrass plant response rating (surinam grass; [10]) | B. signalgrass plant response rating (surinam grass; [5]) | Cocklebur plant response rating (cocklebur; [10]) | Cocklebur plant response rating (cocklebur; [5]) | Plant response rating, Cocklebur (cocklebur; [11]) | Cocklebur plant response rating (cocklebur; [12]) | Redroot pigweed plant response rating (pigweed; [5]) | Morningglory plant response rating (morningglory; [5]) | Plant response rating, Morningglory (morningglory; [11]) | Morningglory plant response rating (morningglory; [12]) | Corn plant response rating (corn; [10]) | Corn plant response rating (corn; [5]) | Plant response rating, Corn (corn; [11]) | Corn plant response rating (corn; [12]) | Sugarbeets plant response rating (sugar beet; [5]) | Plant response rating, Sugarbeets (sugar beet; [11]) | Sugarbeets plant response rating (sugar beet; [12]) | Rape plant response rating (rape; [5]) | Plant response rating, Rape (rape; [11]) | Velvetleaf plant response rating (velvetleaf; [5]) | Plant response rating, Velvetleaf (velvetleaf; [11]) | Velvetleaf plant response rating (velvetleaf; [12])
9: Crabgrass plant response rating (crabgrass; [12])
6: Plant response rating, B. signalgrass (surinam grass; [11])
7: Plant response rating, Blackgrass (blackgrass; [11]) | B. signalgrass plant response rating (surinam grass; [12]) | Giant foxtail plant response rating (giant foxtail; [5]) | Plant response rating, Giant foxtail (giant foxtail; [11])
5: Plant response rating, Redroot pigweed (pigweed; [11]) | Redroot pigweed plant response rating (pigweed; [12]) | Giant foxtail plant response rating (giant foxtail; [10])
8: Plant response rating, Crabgrass (crabgrass; [11]) | Blackgrass plant response rating (blackgrass; [12])
1: Rape plant response rating (rape; [12])
10: Giant foxtail plant response rating (giant foxtail; [12])

CC(C)N(C(=O)n1oc(=O)n(C(C)C(=S)N(C)C)c1=O)c1ccccc1 (centres unmarked) [Compound 704]
9: Plant response rating, B. signalgrass (surinam grass; [7])
4: Giant foxtail plant response rating (giant foxtail; [5])
3: Plant response rating, Sugarbeets (sugar beet; [11])
2: Blackgrass plant response rating (blackgrass; [5]) | B. signalgrass plant response rating (surinam grass; [5])
7: Plant response rating, Giant foxtail (giant foxtail; [11])
8: Plant response rating, Crabgrass (crabgrass; [11]) | Plant response rating, Crabgrass (crabgrass; [13]) | Plant response rating, B. signalgrass (surinam grass; [13])
6: Plant response rating, Blackgrass (blackgrass; [11])
0: Bedstraw plant response rating (bedstraw; [5]) | Plant response rating, Bedstraw (bedstraw; [11]) | Plant response rating, Bedstraw (bedstraw; [13]) | Soybean plant response rating (soybean; [5]) | Plant response rating, Soybean (soybean; [11]) | Wild oats plant response rating (wild oat; [5]) | Plant response rating, Wild oats (wild oat; [11]) | Wheat plant response rating (wheat; [5]) | Plant response rating, Wheat (wheat; [11]) | Nutsedge plant response rating (purple nutsedge; [5]) | Plant response rating, Nutsedge (purple nutsedge; [11]) | Cocklebur plant response rating (cocklebur; [5]) | Plant response rating, Cocklebur (cocklebur; [11]) | Plant response rating, Cocklebur (cocklebur; [13]) | Plant response rating, Cocklebur (cocklebur; [7]) | Redroot pigweed plant response rating (pigweed; [5]) | Morningglory plant response rating (morningglory; [5]) | Plant response rating, Morningglory (morningglory; [11]) | Corn plant response rating (corn; [5]) | Plant response rating, Corn (corn; [11]) | Plant response rating, Corn (corn; [13]) | Sugarbeets plant response rating (sugar beet; [5]) | Rape plant response rating (rape; [5]) | Plant response rating, Rape (rape; [11]) | Velvetleaf plant response rating (velvetleaf; [5]) | Plant response rating, Velvetleaf (velvetleaf; [11])
10: Plant response rating, Blackgrass (blackgrass; [13]) | Plant response rating, Blackgrass (blackgrass; [7])
5: Crabgrass plant response rating (crabgrass; [5]) | Plant response rating, B. signalgrass (surinam grass; [11]) | Plant response rating, Redroot pigweed (pigweed; [11])
